How the values were obtained:
[1] = target: T1, PKC epsilon (Homo sapiens, UniProt Q02156); assay: Biochemical assay for PKC epsilon (fluorescence polarization, Protein Kinase C Assay Kit, Red); conditions: read-out: IC50 μM PKCε
T1 construct: purchased Invitrogen P2282
T1 sequence (Q02156 1-737): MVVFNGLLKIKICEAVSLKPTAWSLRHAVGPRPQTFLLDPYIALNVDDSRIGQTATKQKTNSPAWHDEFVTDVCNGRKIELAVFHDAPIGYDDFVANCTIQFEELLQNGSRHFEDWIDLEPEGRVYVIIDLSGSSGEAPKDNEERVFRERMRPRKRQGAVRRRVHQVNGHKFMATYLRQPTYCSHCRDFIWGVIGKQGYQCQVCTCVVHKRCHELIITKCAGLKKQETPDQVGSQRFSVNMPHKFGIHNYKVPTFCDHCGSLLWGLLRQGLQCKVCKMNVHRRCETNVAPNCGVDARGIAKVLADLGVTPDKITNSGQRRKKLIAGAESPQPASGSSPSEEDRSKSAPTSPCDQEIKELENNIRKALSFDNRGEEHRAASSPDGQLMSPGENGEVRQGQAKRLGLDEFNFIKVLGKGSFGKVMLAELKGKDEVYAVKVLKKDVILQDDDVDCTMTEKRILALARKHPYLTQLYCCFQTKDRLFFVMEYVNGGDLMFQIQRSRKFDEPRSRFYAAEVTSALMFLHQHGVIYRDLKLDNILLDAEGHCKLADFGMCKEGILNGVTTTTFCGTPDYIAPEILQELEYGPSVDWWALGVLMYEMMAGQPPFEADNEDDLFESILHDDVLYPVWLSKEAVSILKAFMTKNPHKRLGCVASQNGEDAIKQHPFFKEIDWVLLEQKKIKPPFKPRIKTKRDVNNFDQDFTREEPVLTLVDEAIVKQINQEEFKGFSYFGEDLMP
In short: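 Read-out was fluorescence-polarization competition between phosphorylated substrate and a rhodamine PKC tracer for an anti-phosphoserine antibody, added with EDTA stop after an 80 min room-temperature kinase reaction with ATP and protein substrate (Mg2+/Ca2+ buffer). Enzyme (10 ng/ml final) was preincubated with compound for 30 min.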

[2] = target: T2, human ROCKα/ROCKII mix (Homo sapiens, UniProt O75116); assay: Biochemical assay for ROCK (fluorescence polarization, ROCK IMAP Kit)
T2 construct: purchased Upstate Biotechnology 14-451
T2 sequence (O75116 11-552 limits assumed): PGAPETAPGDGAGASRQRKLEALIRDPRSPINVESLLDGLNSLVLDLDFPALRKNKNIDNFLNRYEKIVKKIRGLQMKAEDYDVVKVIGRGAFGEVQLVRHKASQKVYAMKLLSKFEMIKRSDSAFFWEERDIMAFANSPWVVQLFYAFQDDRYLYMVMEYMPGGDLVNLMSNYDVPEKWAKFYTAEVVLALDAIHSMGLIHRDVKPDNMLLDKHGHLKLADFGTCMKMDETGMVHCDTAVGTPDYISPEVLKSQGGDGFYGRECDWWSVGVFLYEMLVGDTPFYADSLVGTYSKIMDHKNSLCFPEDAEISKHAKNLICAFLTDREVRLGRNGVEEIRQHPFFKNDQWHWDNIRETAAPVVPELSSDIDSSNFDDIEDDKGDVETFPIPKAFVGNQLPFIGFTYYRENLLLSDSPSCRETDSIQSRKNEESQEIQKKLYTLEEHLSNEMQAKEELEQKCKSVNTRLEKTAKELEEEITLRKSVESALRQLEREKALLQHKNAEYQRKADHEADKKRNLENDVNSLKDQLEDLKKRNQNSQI

SMILES	IC50 [1] [µM]	IC50 [2] [µM]
NC(CNC(=S)Nc1ccccc1)c1ccc(C(=O)Nc2ccncc2)cc1 (stereo not drawn) [Compound 11, 4-[1-amino-2-(3-phenyl-thioureido)-ethyl]-N-pyridin-4-yl-benzamide]	0.5 to 5	0.05 to 0.5
Cc1ccccc1NC(=S)NCC(N)c1ccc(C(=O)Nc2ccncc2)cc1 (stereo not drawn) [Compound 12, 4-[1-amino-2-(3-o-tolyl-thioureido)-ethyl]-N-pyridin-4-yl-benzamide]	0.05 to 0.5	0.5 to 5
NC(CNC(=S)Nc1ccc(Cl)cc1)c1ccc(C(=O)Nc2ccncc2)cc1 (stereo not drawn) [Compound 13, 4-{1-amino-2-[3-(4-chloro-phenyl)-thioureido]-ethyl}-N-pyridin-4-yl-benzamide]	0.05 to 0.5	0.05 to 0.5
COc1ccc(NC(=S)NCC(N)c2ccc(C(=O)Nc3ccncc3)cc2)cc1 (stereo not drawn) [Compound 14, 4-{1-amino-2-[3-(4-methoxy-phenyl)-thioureido]-ethyl}-N-pyridin-4-yl-benzamide]	0.5 to 5	0.5 to 5
NC(CNC(=S)Nc1ccc(OC(F)(F)F)cc1)c1ccc(C(=O)Nc2ccncc2)cc1 (stereo not drawn) [Compound 15, 4-{1-amino-2-[3-(4-trifluoromethoxy-phenyl)-thioureido]-ethyl}-N-pyridin-4-yl-benzamide]	5 to 50	0.5 to 5
NC(CNC(=S)Nc1ccc(C(F)(F)F)cc1)c1ccc(C(=O)Nc2ccncc2)cc1 (stereo not drawn) [Compound 16, 4-{1-amino-2-[3-(4-trifluoromethyl-phenyl)-thioureido]-ethyl}-N-pyridin-4-yl-benzamide]	0.5 to 5	0.5 to 5
NC(CNC(=S)Nc1cccc2ccccc12)c1ccc(C(=O)Nc2ccncc2)cc1 (stereo not drawn) [Compound 17, 4-[1-amino-2-(3-naphtalen-1-yl-thioureido)-ethyl]-N-pyridin-4-yl-benzamide]	0.05 to 0.5	0.05 to 0.5
CC(C)(C)c1ccc(NC(=S)NCC(N)c2ccc(C(=O)Nc3ccncc3)cc2)cc1 (stereo not drawn) [Compound 18, 4-{1-amino-2-[3-(4-tert-butyl-phenyl)-thioureido]-ethyl}-N-pyridin-4-yl-benzamide]	5 to 50	0.5 to 5
NC(CNC(=O)Nc1ccccc1F)c1ccc(C(=O)Nc2ccncc2)cc1 (stereo not drawn) [Compound 20, 4-{1-amino-2-[3-(2-fluoro-phenyl)-ureido]-ethyl}-N-pyridin-4-yl-benzamide]	0.5 to 5	0.05 to 0.5
CN(C)c1ccc(NC(=O)NCC(N)c2ccc(C(=O)Nc3ccncc3)cc2)cc1 (stereo not drawn) [Compound 21, 4-{1-amino-2-[3-(4-dimethylamino-phenyl)-ureido]-ethyl}-N-pyridin-4-yl-benzamide]	0.5 to 5	0.05 to 0.5

Further lines, results first:

IC50 [1] [µM]	IC50 [2] [µM]	SMILES
0.5 to 5	0.5 to 5	NC(CNC(=O)Nc1ccc(-c2ccccc2)cc1)c1ccc(C(=O)Nc2ccncc2)cc1 (stereo not drawn) [Compound 22, 4-[1-amino-2-(3-biphenyl-4-yl-ureido)-ethyl]-N-pyridin-4-yl-benzamide]
0.5 to 5	0.05 to 0.5	NC(CNC(=O)Nc1ccc2ccccc2c1)c1ccc(C(=O)Nc2ccncc2)cc1 (stereo not drawn) [Compound 23, 4-[1-amino-2-(3-naphtalen-2-yl-ureido)-ethyl]-N-pyridin-4-yl-benzamide]
5 to 50	0.5 to 5	CC(C)(C)c1ccc(NC(=O)NCC(N)c2ccc(C(=O)Nc3ccncc3)cc2)cc1 (stereo not drawn) [Compound 24, 4-{1-amino-2-[3-(4-tert-butyl-phenyl)-ureido]-ethyl}-N-pyridin-4-yl-benzamide]
0.5 to 5	0.05 to 0.5	Cc1ccccc1NC(=O)NCC(N)c1ccc(C(=O)Nc2ccncc2)cc1 (stereo not drawn) [Compound 25, 4-[1-amino-2-(3-o-tolyl-ureido)-ethyl]-N-pyridin-4-yl-benzamide]
0.05 to 0.5	0.05 to 0.5	Cc1cc(Cl)ccc1NC(=O)NCC(N)c1ccc(C(=O)Nc2ccncc2)cc1 (stereo not drawn) [Compound 26, 4-{1-amino-2-[3-(4-chloro-2-methyl-phenyl)-ureido]-ethyl}-N-pyridin-4-yl-benzamide]

— patent publication US20100168102A9, “Amide Derivatives as Kinase Inhibitors” (Devgen NV, priority 2005, published 2010)
